In PubChem BioAssay AID1963826 (Molecular Pharmacology Branch, DTP, NCI, 2024):

System: 926638-142-R-J1-PDC complex spheroid viability
Experiment: Anticancer human tumor 926638-142-R-J1-PDC patient-derived endometrial carcinoma cell line growth inhibition [POLQ]
Conditions: for IC50: curve of first compound; for viability, T/C: stronger effect = lower value; active = viability on the fitted dose curve at most 10% of control; inactive = the rest
Summary of the method: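 Three-cell-type spheroids modelling solid tumor plus stroma served as the readout system; POL inhibitors were tested individually and in combination, concentration ranges set by clinical Cmax where known.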

[1] = second compound 0.0316 µM, first compound 0.0316 µM
[2] = second compound 0.0316 µM, first compound 0.1 µM
[3] = second compound 0.0316 µM, first compound 0.316 µM
[4] = second compound 0.0316 µM, first compound 1 µM
[5] = second compound 0.0316 µM, first compound 3.16 µM
[6] = second compound 0.0316 µM, first compound 10 µM
[7] = second compound 0.1 µM, first compound 0.0316 µM
[8] = second compound 0.1 µM, first compound 0.1 µM
[9] = second compound 0.1 µM, first compound 0.316 µM
[10] = second compound 0.1 µM, first compound 1 µM
[11] = second compound 0.1 µM, first compound 3.16 µM
[12] = second compound 0.1 µM, first compound 10 µM
[13] = second compound 0.316 µM, first compound 0.0316 µM
[14] = second compound 0.316 µM, first compound 0.1 µM
[15] = second compound 0.316 µM, first compound 0.316 µM
[16] = second compound 0.316 µM, first compound 1 µM
[17] = second compound 0.316 µM, first compound 3.16 µM
[18] = second compound 0.316 µM, first compound 10 µM
[19] = second compound 1 µM, first compound 0.0316 µM
[20] = second compound 1 µM, first compound 0.1 µM
[21] = second compound 1 µM, first compound 0.316 µM
[22] = second compound 1 µM, first compound 1 µM
[23] = second compound 1 µM, first compound 3.16 µM
[24] = second compound 1 µM, first compound 10 µM
[25] = second compound 3.16 µM, first compound 0.0316 µM
[26] = second compound 3.16 µM, first compound 0.1 µM
[27] = second compound 3.16 µM, first compound 0.316 µM
[28] = second compound 3.16 µM, first compound 1 µM
[29] = second compound 3.16 µM, first compound 3.16 µM
[30] = second compound 3.16 µM, first compound 10 µM
[31] = second compound 10 µM, first compound 0.0316 µM
[32] = second compound 10 µM, first compound 0.1 µM
[33] = second compound 10 µM, first compound 0.316 µM
[34] = second compound 10 µM, first compound 1 µM
[35] = second compound 10 µM, first compound 3.16 µM
[36] = second compound 10 µM, first compound 10 µM
[37] = second compound 0.0316 µM, first compound 0.00316 µM
[38] = second compound 0.0316 µM, first compound 0.01 µM
[39] = second compound 0.1 µM, first compound 0.00316 µM
[40] = second compound 0.1 µM, first compound 0.01 µM
[41] = second compound 0.316 µM, first compound 0.00316 µM
[42] = second compound 0.316 µM, first compound 0.01 µM
[43] = second compound 1 µM, first compound 0.00316 µM
[44] = second compound 1 µM, first compound 0.01 µM
[45] = second compound 3.16 µM, first compound 0.00316 µM
[46] = second compound 3.16 µM, first compound 0.01 µM
[47] = second compound 10 µM, first compound 0.00316 µM
[48] = second compound 10 µM, first compound 0.01 µM
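Also: spheroids exposed to drugs for one week before readout.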
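For viability, T/C in this document: percent viability relative to DMSO vehicle control wells set as 100%.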

CNCc1ccc(-c2[nH]c3cc(F)cc4c3c2CCNC4=O)cc1 + Cc1cccc(N(C)C(=O)C2C(O)CCN2c2nc(C)cc(C(F)(F)F)c2C#N)c1
inactive: viability, T/C [1] 69.2% | viability, T/C [2] 112% | viability, T/C [3] 100% | viability, T/C [4] 93.8% | viability, T/C [5] 89.9% | viability, T/C [6] 82% | viability, T/C [7] 103% | viability, T/C [8] 97.9% | viability, T/C [9] 85.5% | viability, T/C [10] 80.1% | viability, T/C [11] 75.6% | viability, T/C [12] 74.7% | viability, T/C [13] 104% | viability, T/C [14] 92.7% | viability, T/C [15] 84.5% | viability, T/C [16] 89.7% | viability, T/C [17] 100% | viability, T/C [18] 81% | viability, T/C [19] 91.3% | viability, T/C [20] 89.6% | viability, T/C [21] 89.7% | viability, T/C [22] 89% | viability, T/C [23] 81% | viability, T/C [24] 79.1% | viability, T/C [25] 97.8% | viability, T/C [26] 92.8% | viability, T/C [27] 85.1% | viability, T/C [28] 87.9% | viability, T/C [29] 98.5% | viability, T/C [30] 69.7% | viability, T/C [31] 88.8% | viability, T/C [32] 87.7% | viability, T/C [33] 96.2% | viability, T/C [34] 87.2% | viability, T/C [35] 75.4% | viability, T/C [36] 71.7%
> 10000 nM: IC50 (second compound 0.0316 µM) | IC50 (second compound 0.1 µM) | IC50 (second compound 0.316 µM) | IC50 (second compound 1 µM) | IC50 (second compound 3.16 µM) | IC50 (second compound 10 µM)

COc1ccc([C@@H](O)c2cc(-c3ncnc4cc(N5CCOCC5)ccc34)c(F)cc2Cl)nn1 + Cc1cccc(N(C)C(=O)C2C(O)CCN2c2nc(C)cc(C(F)(F)F)c2C#N)c1
active: viability, T/C [6] 7.35% | viability, T/C [12] 9.24% | viability, T/C [18] 7.22% | viability, T/C [24] 9.12% | viability, T/C [30] 9.15%
399 nM: IC50 (second compound 0.316 µM)
459 nM: IC50 (second compound 0.0316 µM)
546 nM: IC50 (second compound 0.1 µM)
415 nM: IC50 (second compound 10 µM)
inactive: viability, T/C [1] 76.7% | viability, T/C [2] 93.2% | viability, T/C [3] 58.1% | viability, T/C [4] 26.9% | viability, T/C [5] 12.9% | viability, T/C [7] 99% | viability, T/C [8] 80.7% | viability, T/C [9] 74.2% | viability, T/C [10] 24.3% | viability, T/C [11] 11.5% | viability, T/C [13] 77.3% | viability, T/C [14] 71.1% | viability, T/C [15] 57.2% | viability, T/C [16] 24.6% | viability, T/C [17] 13.3% | viability, T/C [19] 107% | viability, T/C [20] 89.7% | viability, T/C [21] 65.9% | viability, T/C [22] 26.8% | viability, T/C [23] 14.7% | viability, T/C [25] 83.5% | viability, T/C [26] 88.1% | viability, T/C [27] 57.8% | viability, T/C [28] 32.7% | viability, T/C [29] 12.2% | viability, T/C [31] 76.5% | viability, T/C [32] 94% | viability, T/C [33] 56% | viability, T/C [34] 24% | viability, T/C [35] 12.9% | viability, T/C [36] 9.62%
493 nM: IC50 (second compound 1 µM)
484 nM: IC50 (second compound 3.16 µM)

COc1cccc(OCCCN)c1-c1cc(Nc2cnc(C#N)cn2)n[nH]1 + Cc1cccc(N(C)C(=O)C2C(O)CCN2c2nc(C)cc(C(F)(F)F)c2C#N)c1
50.4 nM: IC50 (second compound 1 µM)
inactive: viability, T/C [37] 99.5% | viability, T/C [38] 72.9% | viability, T/C [1] 51.1% | viability, T/C [2] 49.4% | viability, T/C [3] 39.5% | viability, T/C [4] 36% | viability, T/C [39] 102% | viability, T/C [40] 81.8% | viability, T/C [7] 54.2% | viability, T/C [8] 47.2% | viability, T/C [9] 46.1% | viability, T/C [10] 37.8% | viability, T/C [41] 99.3% | viability, T/C [42] 61.6% | viability, T/C [13] 59.7% | viability, T/C [14] 43.6% | viability, T/C [15] 44.1% | viability, T/C [16] 30.4% | viability, T/C [43] 96.6% | viability, T/C [44] 79.2% | viability, T/C [19] 53.5% | viability, T/C [20] 43.3% | viability, T/C [21] 49.2% | viability, T/C [22] 34.3% | viability, T/C [45] 89.4% | viability, T/C [46] 65.9% | viability, T/C [25] 62.1% | viability, T/C [26] 49.2% | viability, T/C [27] 47.5% | viability, T/C [28] 33.7% | viability, T/C [47] 83.5% | viability, T/C [48] 80.9% | viability, T/C [31] 47% | viability, T/C [32] 40.2% | viability, T/C [33] 38.6% | viability, T/C [34] 27.3%
108 nM: IC50 (second compound 3.16 µM)
56.8 nM: IC50 (second compound 0.0316 µM)
59.4 nM: IC50 (second compound 0.1 µM)
29 nM: IC50 (second compound 10 µM)
47.7 nM: IC50 (second compound 0.316 µM)

Cn1ncnc1[C@H]1c2n[nH]c(=O)c3cc(F)cc(c23)N[C@@H]1c1ccc(F)cc1 + Cc1cccc(N(C)C(=O)C2C(O)CCN2c2nc(C)cc(C(F)(F)F)c2C#N)c1
inactive: viability, T/C (second compound 0.0316 µM, first compound 0.000316 µM) 100% | viability, T/C (second compound 0.0316 µM, first compound 0.001 µM) 83.6% | viability, T/C [37] 86.1% | viability, T/C [38] 84.9% | viability, T/C [1] 81.5% | viability, T/C [2] 73.8% | viability, T/C (second compound 0.1 µM, first compound 0.000316 µM) 91.2% | viability, T/C (second compound 0.1 µM, first compound 0.001 µM) 82.4% | viability, T/C [39] 83.6% | viability, T/C [40] 82.5% | viability, T/C [7] 73.7% | viability, T/C [8] 78.8% | viability, T/C (second compound 0.316 µM, first compound 0.000316 µM) 86.9% | viability, T/C (second compound 0.316 µM, first compound 0.001 µM) 81.2% | viability, T/C [41] 92.9% | viability, T/C [42] 73.4% | viability, T/C [13] 64.9% | viability, T/C [14] 65.3% | viability, T/C (second compound 1 µM, first compound 0.000316 µM) 103% | viability, T/C (second compound 1 µM, first compound 0.001 µM) 101% | viability, T/C [43] 70.3% | viability, T/C [44] 77.2% | viability, T/C [19] 85.1% | viability, T/C [20] 68.1% | viability, T/C (second compound 3.16 µM, first compound 0.000316 µM) 73.5% | viability, T/C (second compound 3.16 µM, first compound 0.001 µM) 97.5% | viability, T/C [45] 91% | viability, T/C [46] 67.5% | viability, T/C [25] 74.1% | viability, T/C [26] 76.8% | viability, T/C (second compound 10 µM, first compound 0.000316 µM) 87.9% | viability, T/C (second compound 10 µM, first compound 0.001 µM) 84.2% | viability, T/C [47] 77.3% | viability, T/C [48] 80% | viability, T/C [31] 72.7% | viability, T/C [32] 75.7%
> 100 nM: IC50 (second compound 0.0316 µM) | IC50 (second compound 0.1 µM) | IC50 (second compound 0.316 µM) | IC50 (second compound 1 µM) | IC50 (second compound 3.16 µM) | IC50 (second compound 10 µM)
